Test results from PubChem BioAssay AID330 (DTP/NCI, 2004).
Where “and” joins values, the source holds several entries; their conditions need not be identical. Equal entries are not always repeated. Inconclusive results and toxic doses are left out. How the source made its calls: active means survival T/C of 150% or more; inactive means T/C below 125% in these data.

Test system: P388 leukemia ip, CD2F1 mice, survival T/C
Assay: NCI In Vivo Anticancer Drug Screen. Data for tumor model P388 Leukemia (intraperitoneal) in CD2F1 (CDF1) mice
Settings: endpoint: median survival time, higher = longer survival
Outline: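 Mice carrying the transplanted tumor received test compound or vehicle. Survival was recorded in each group, and the value is the treated-group measurement divided by that of the vehicle-treated control group.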

[1] = dose: 50.0 mg/kg/injection, schedule: Q01DX009 (ip), vehicle: Klucel (hydroxypropylcellulose) (HPC)
[2] = dose: 100.0 mg/kg/injection, schedule: Q01DX009 (ip), vehicle: Klucel (hydroxypropylcellulose) (HPC)
[3] = dose: 200.0 mg/kg/injection, schedule: Q01DX009 (ip), vehicle: Klucel (hydroxypropylcellulose) (HPC)
[4] = dose: 50.0 mg/kg/injection, schedule: Q01DX005 (ip), vehicle: Klucel (hydroxypropylcellulose) (HPC)
[5] = dose: 100.0 mg/kg/injection, schedule: Q01DX005 (ip), vehicle: Klucel (hydroxypropylcellulose) (HPC)
[6] = dose: 200.0 mg/kg/injection, schedule: Q01DX005 (ip), vehicle: Klucel (hydroxypropylcellulose) (HPC)
[7] = dose: 100.0 mg/kg/injection, schedule: Q04DX003 (ip), vehicle: saline
[8] = dose: 200.0 mg/kg/injection, schedule: Q04DX003 (ip), vehicle: saline
[9] = dose: 400.0 mg/kg/injection, schedule: Q04DX003 (ip), vehicle: saline
[10] = dose: 120.0 mg/kg/injection, schedule: Q01DX005 (ip), vehicle: saline with Tween-80
[11] = dose: 240.0 mg/kg/injection, schedule: Q01DX005 (ip), vehicle: saline with Tween-80
[12] = dose: 60.0 mg/kg/injection, schedule: Q01DX005 (ip), vehicle: saline with Tween-80
[13] = dose: 50.0 mg/kg/injection, schedule: Q01DX009 (ip), vehicle: saline
[14] = dose: 100.0 mg/kg/injection, schedule: Q01DX009 (ip), vehicle: saline
[15] = dose: 200.0 mg/kg/injection, schedule: Q01DX009 (ip), vehicle: saline

Measured: T/C

COc1cccc2c1C(=O)c1c(O)c3c(c(O)c1C2=O)C[C@@](O)(C(C)=O)C[C@@H]3OC1CC(N=CCCCC=NC2CC(O[C@H]3C[C@](O)(C(C)=O)Cc4c(O)c5c(c(O)c43)C(=O)c3c(OC)cccc3C5=O)OC(C)C2O)C(O)C(C)O1 (stereo partly specified)
inactive: dose: 0.5 mg/kg/injection, schedule: Q04DX003 (ip), vehicle: distilled water + Tween-80 104 % of control | dose: 1.0 mg/kg/injection, schedule: Q04DX003 (ip), vehicle: distilled water + Tween-80 110 % of control | dose: 2.0 mg/kg/injection, schedule: Q04DX003 (ip), vehicle: distilled water + Tween-80 123 % of control | dose: 16.0 mg/kg/injection, schedule: Q04DX003 (ip), vehicle: distilled water + Tween-80 122 % of control

C(=NCc1ccccc1)c1ccccc1-c1ccccc1C=NCc1ccccc1
inactive: dose: 12.5 mg/kg/injection, schedule: Q01DX009 (ip), vehicle: Klucel (hydroxypropylcellulose) (HPC) 92 % of control | [1] 86 % of control | [2] 100 % of control

O=C([O-])CC(=O)[O-].[Cu+2].c1ccc(-c2ccccn2)nc1
inactive: dose: 6.25 mg/kg/injection, schedule: Q01DX005 (ip), vehicle: saline with Tween-80 101 % of control | dose: 12.5 mg/kg/injection, schedule: Q01DX005 (ip), vehicle: saline with Tween-80 99 % of control | dose: 25.0 mg/kg/injection, schedule: Q01DX005 (ip), vehicle: saline with Tween-80 108 % of control

COC(=O)c1cc(NS(=O)(=O)N(C)C)cc(C(=O)OC)c1
inactive: [1] 103 % of control | [2] 103 % of control | [3] 103 % of control

CN(Cc1ccccc1)C(c1ccccc1)C1(c2ccccc2)Cc2ccccc2C(=O)O1 (stereo unspecified)
inactive: [4] 87 % of control | [5] 87 % of control | [6] 87 % of control

COc1ccc(NC(=O)N(C)C)cc1OC
inactive: [7] 101 % of control | [8] 107 % of control | [9] 105 % of control

CC1(C)C(=O)N2C(=O)CC(=O)N2C1=O
inactive: [10] 97 % of control | [11] 93 % of control

CN1CC(C(=O)NC2(C)OC3(O)C4CCCN4C(=O)C(Cc4ccccc4)N3C2=O)C=C2c3cccc4[nH]cc(c34)CC21 (stereo unspecified)
inactive: [4] 91 % of control | [5] 87 % of control | [6] 102 % of control

N#C[S][Hg][c]1ccccc1
inactive: [12] 106 % of control | [10] 98 % of control

CN(C)CCOc1ccc(/C=C2\CCc3ccccc3C2=O)cc1
inactive: [12] 97 % of control | [10] 94 % of control | [11] 95 % of control

Oc1ccc(C2Oc3ccccc3C=C2c2ccccc2)cc1 (stereo unspecified)
inactive: dose: 50.0 mg/kg/injection, schedule: Q01DX005 (ip), vehicle: saline with Tween-80 94 % of control | dose: 100.0 mg/kg/injection, schedule: Q01DX005 (ip), vehicle: saline with Tween-80 89 % of control | dose: 200.0 mg/kg/injection, schedule: Q01DX005 (ip), vehicle: saline with Tween-80 96 % of control

O=C(CCS(=O)(=O)CCC(=O)c1ccco1)c1ccco1
inactive: [7] 94 % of control | [8] 94 % of control | [9] 90 % of control

CCCCCCCCCCCCCCCCON
inactive: [1] 103 % of control | [2] 111 % of control

CC(C)NCC(O)COc1cccc2ccccc12 (stereo unspecified)
inactive: dose: 4.0 mg/kg/injection, schedule: Q01DX009 (ip), vehicle: Klucel (hydroxypropylcellulose) (HPC) 97 % of control | dose: 8.0 mg/kg/injection, schedule: Q01DX009 (ip), vehicle: Klucel (hydroxypropylcellulose) (HPC) 98 % of control | dose: 16.0 mg/kg/injection, schedule: Q01DX009 (ip), vehicle: Klucel (hydroxypropylcellulose) (HPC) 100 % of control | dose: 32.0 mg/kg/injection, schedule: Q01DX009 (ip), vehicle: Klucel (hydroxypropylcellulose) (HPC) 95 % of control | dose: 64.0 mg/kg/injection, schedule: Q01DX009 (ip), vehicle: Klucel (hydroxypropylcellulose) (HPC) 113 % of control

CC(=O)OC1C2CCC3C(C)(O)C4CC(O)C(C)(C)C4(O)C(O)CC13CC2(C)O (stereo unspecified)
inactive: dose: 0.09 mg/kg/injection, schedule: Q01DX009 (ip), vehicle: saline 100 % of control | dose: 0.19 mg/kg/injection, schedule: Q01DX009 (ip), vehicle: saline 98 % of control | dose: 0.25 mg/kg/injection, schedule: Q01DX009 (ip), vehicle: saline 116 % of control | dose: 0.39 mg/kg/injection, schedule: Q01DX009 (ip), vehicle: saline 100 % of control and 89 % of control | dose: 0.5 mg/kg/injection, schedule: Q01DX009 (ip), vehicle: saline 108 % of control | dose: 1.0 mg/kg/injection, schedule: Q01DX009 (ip), vehicle: saline 107 % of control

C=CCCCn1nc(-c2ccccc2)c(-c2ccccc2)n1
inactive: dose: 50.0 mg/kg/injection, schedule: Q01DX009 (ip), vehicle: saline with Tween-80 106 % of control | dose: 100.0 mg/kg/injection, schedule: Q01DX009 (ip), vehicle: saline with Tween-80 100 % of control | dose: 200.0 mg/kg/injection, schedule: Q01DX009 (ip), vehicle: saline with Tween-80 103 % of control

CC(C)=NO
inactive: [13] 117 % of control | [14] 100 % of control | [15] 101 % of control

CC12CN3CC(C)(C1=O)C(=O)C(C)(C3)C2=O
inactive: dose: 60.0 mg/kg/injection, schedule: Q01DX005 (ip), vehicle: saline 94 % of control | dose: 120.0 mg/kg/injection, schedule: Q01DX005 (ip), vehicle: saline 92 % of control | dose: 240.0 mg/kg/injection, schedule: Q01DX005 (ip), vehicle: saline 94 % of control

Nc1nc2c(-c3ccc([N+](=O)[O-])cc3)nnn2c2cccc(Cl)c12
inactive: [12] 98 % of control | [10] 99 % of control | [11] 97 % of control

CC(C)c1cccc(C(C)C)c1NC(=O)Nc1ccc(Cl)cc1Cl
inactive: [12] 114 % of control | [10] 104 % of control | [11] 116 % of control

CC(=O)OCC(C)[C@H](C)C(=O)C1OCOC(C2CC(=O)NC(=O)C2)[C@@H]1OC(C)=O (stereo partly specified)
inactive: dose: 0.01 mg/kg/injection, schedule: Q01DX009 (ip), vehicle: distilled water + alcohol 100 % of control | dose: 0.03 mg/kg/injection, schedule: Q01DX009 (ip), vehicle: distilled water + alcohol 98 % of control | dose: 0.06 mg/kg/injection, schedule: Q01DX009 (ip), vehicle: distilled water + alcohol 98 % of control | dose: 0.12 mg/kg/injection, schedule: Q01DX009 (ip), vehicle: distilled water + alcohol 100 % of control

[O-][n+]1ccc(C2CO2)cc1 (stereo unspecified)
inactive: [13] 93 % of control | [14] 101 % of control | [15] 98 % of control

CS(=O)(=O)OC1C(COC(=O)c2ccccc2)OC(n2ccc(=O)[nH]c2=O)C1O (stereo unspecified)
inactive: dose: 50.0 mg/kg/injection, schedule: Q01DX005 (ip), vehicle: saline 100 % of control | dose: 100.0 mg/kg/injection, schedule: Q01DX005 (ip), vehicle: saline 101 % of control | dose: 200.0 mg/kg/injection, schedule: Q01DX005 (ip), vehicle: saline 101 % of control

CCn1cnc2c(SC)ncnc21
inactive: dose: 12.5 mg/kg/injection, schedule: Q01DX009 (ip), vehicle: saline 100 % of control | dose: 25.0 mg/kg/injection, schedule: Q01DX009 (ip), vehicle: saline 100 % of control | [13] 95 % of control | dose: 100.0 mg/kg/injection, schedule: Q04DX003 (ip), vehicle: other 100 % of control

Cc1n[nH]c(=S)n1N
inactive: [1] 94 % of control | [2] 93 % of control | [3] 95 % of control | dose: 400.0 mg/kg/injection, schedule: Q01DX009 (ip), vehicle: Klucel (hydroxypropylcellulose) (HPC) 88 % of control

O=C1C(Cl)=C(Nc2cccc3ccccc23)C(=O)C(Cl)=C1Nc1cccc2ccccc12
inactive: [4] 95 % of control | [5] 88 % of control | [6] 88 % of control

O=C(CCCCCCCCc1ccccc1)c1c(O)cccc1O
inactive: dose: 6.0 mg/kg/injection, schedule: Q01DX009 (ip), vehicle: Klucel (hydroxypropylcellulose) (HPC) 95 % of control | dose: 12.0 mg/kg/injection, schedule: Q01DX009 (ip), vehicle: Klucel (hydroxypropylcellulose) (HPC) 88 % of control | dose: 24.0 mg/kg/injection, schedule: Q01DX009 (ip), vehicle: Klucel (hydroxypropylcellulose) (HPC) 97 % of control | dose: 48.0 mg/kg/injection, schedule: Q01DX009 (ip), vehicle: Klucel (hydroxypropylcellulose) (HPC) 97 % of control

CC(C)(C)OP(=O)(NN)OC(C)(C)C
inactive: [13] 101 % of control | [14] 108 % of control | [15] 99 % of control
